Assay results published in US10307427B2, “Apoptosis signal-regulating kinase inhibitors” (Gilead Sciences, Inc., priority 2012, dated 2019).

Tested on: CXCL1 in human whole blood
Assay: Human whole blood CXCL1 assay (Auranofin stimulation)
Format: cell-based
Details: 5 μM Auranofin, 24 hours, CXCL1 quantified, average of donors, read-out: WB EC50 nM (n = 4)
Protocol: Human Whole Blood CXCL1 Assay
Human blood collected in sodium heparin glass vacutainer tubes (BD Biosciences #366480) was obtained from Stanford Blood Center (Palo Alto, Ca). Red blood cell Ammonium-Chloride-Potassium (ACK) lysis buffer was obtained from Invitrogen (A10492-01) Phosphate buffered saline (PBS, 21-031-CV) and RPMI640 media (10-040-CV) were purchased from Cellgro. 50 ml conical tubes were from BD Biosciences (352070). Multiscreen Filter plates (MSBVS 1210) used along with vacuum manifold for 96-well plate (MAVM0960R) were purchased from EMD Millipore Inc. Transfer pipettes (13-711-20) and hemocytometer (0267110) were purchased from Thermo Fisher Scientific. An Allegra X15R from Beckmann Coulter was used for all the centrifugation steps in the isolation of PBMCs.
ASK1 inhibitors and Auranofin (Enzo Life Sciences Inc. BML-EI206-0100) were dissolved in dimethyl sulfoxide (DMSO, Sigma Aldrich cat#472301) at a concentration of 10 mM and 100 mM, respectively. […] CXCL1 protein was quantified with an ELISA assay from Millipore.
A 10 mM ASK1 inhibitor DMSO stock was diluted in saline to create a 100 μM (10×) working solution. […] 50 μl of the resulting supernatant from each well was transferred to a new 96 well assay plate and the amount of CXCL1 was quantified by a Procarta immunoassay following the manufacturer's instructions. […]

Row | EC50 | Structure (SMILES)
1 | 243 nM | O=C(Nc1csc(-c2nncn2C2CC2)n1)c1cc(-n2cnc(C3CC3)c2)c(N2CCOCC2)cn1 [Example 1, 4-(4-cyclopropyl-1H-imidazol-1-yl)-N-(2-(4-cyclopropyl-4H-1,2,4-triazol-3-yl)thiazol-4-yl)-5-morpholinopicolinamide]
2 | 202 nM | C[C@H](n1cnnc1-c1nc(NC(=O)c2cc(-n3cnc(C4CC4)c3)c(N3CCOCC3)cn2)cs1)C(F)(F)F [Example 3, (S)-4-(4-cyclopropyl-1H-imidazol-1-yl)-5-morpholino-N-(2-(4-(1,1,1-trifluoropropan-2-yl)-4H-1,2,4-triazol-3-yl)thiazol-4-yl)picolinamide]
